EP1137645B1, “ALPHA-METHYLBENZYL-CONTAINING THIOUREA INHIBITORS OF HERPES VIRUSES CONTAINING A […] GROUP” (Wyeth, priority 1998, dated 2000)
In brackets after ≈: the same amount, converted by molar mass. Where two headings read alike, the source gives them in different places.

Legend:
VZV strain Ellen = experiment: VZV antiviral (ELISA) assay; format: cell-based
Outline: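 HFF cells infected with VZV Ellen at multiplicity below 0.1 overnight, then mixed infected/uninfected cells seeded with compound in DMEM/2% FBS and incubated three days at 37°C, 5% CO2.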

[1] = system: HCMV recombinant mutant virus whose genome contains the prokaryotic beta-glucuronidase gene; experiment: microbe, parasite or virus in culture; format: cell-based, human cytomegalovirus; conditions: Human betaherpesvirus 5, Fibroblast
Outline: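 Antiviral IC50 estimated from reduced reporter activity across compound amounts: lysates prepared 96 h after infection were tested with p-nitrophenyl- or methylumbelliferyl-glucuronide. Cells were human foreskin fibroblasts, infected alongside inhibitor with HCMV (e.g. RV145) expressing viral promoter-driven beta-glucuronidase.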

HSV- I = experiment: HSV antiviral (ELISA) assay; format: cell-based; conditions: read-out: IC50 (ug/ml) HSV
Outline: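 IC50 from fluorescence versus untreated control in a cell ELISA: anti-glycoprotein D antibody, β-galactosidase-conjugated secondary, 4-methyl umbelliferone read at 365/450 nm. Vero cells (2% FBS DMEM) received compound 30 min pre-infection with HSV-1 at MOI 0.006, fixed ~24 h post-infection.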

[2] = Human alphaherpesvirus 3, HFF, read-out: IC50 (ug/ml) VZV, VZV strain Ellen, HFF cells, ELISA
[3] = read-out: IC50 ug/ml HCMV, HCMV, human foreskin fibroblasts
[4] = Human alphaherpesvirus 3, VZV strain Ellen, HFF cells, ELISA, read-out: IC50 (ug/ml) VZV

O=C(Nc1ccc(NC(=S)NCc2ccc(Cl)c(Cl)c2)cc1)c1ccccc1F [Example 538, N-{4-[3-(3,4-Dichloro-benzyl)-thioureido]-phenyl}-2-fluoro-benzamide]
IC50 (VZV strain Ellen; [2]): 10 µg/mL (≈ 22.3 µM)
IC50 [1, 3]: > 10 µg/mL
IC50 (HSV- I; Vero): > 10 µg/mL

O=C(Nc1ccc(NC(=S)NCc2ccc3c(c2)OCO3)cc1)c1ccccc1F [Example 540, N-[4-(3-Benzo[1,3]dioxol-5-ylmethyl-thioureido)-phenyl]-2-fluoro-benzamide]
IC50 (VZV strain Ellen; [4]): > 10 µg/mL
IC50 ([1]; read-out: IC50 ug/ml HCMV): > 0.5 µg/mL
IC50 (HSV- I; HSV- I, Vero cells, ELISA): > 10 µg/mL

O=C(Nc1ccc(NC(=S)NCc2cc(C(F)(F)F)cc(C(F)(F)F)c2)cc1)c1ccccc1F [Example 543, N-{4-[3-(3,5-Bis-trifluoromethyl-benzyl)-thioureido]-phenyl}-2-fluoro-benzamide]
IC50 (VZV strain Ellen; [4]): > 10 µg/mL
IC50 ([1]; read-out: IC50 ug/ml HCMV): 0.3 µg/mL (≈ 0.582 µM)
IC50 (HSV- I; HSV- I, Vero cells, ELISA): > 10 µg/mL

O=C(Nc1ccc(NC(=S)Nc2ccc(OC(F)(F)F)c(Br)c2)cc1)c1ccccc1F [Example 549, N-{4-[3-(3-Bromo-4-trifluoromethoxy-phenyl)-thioureido]-phenyl}-2-fluoro-benzamide]
IC50 (VZV strain Ellen; [2]): > 10 µg/mL
IC50 [1, 3]: > 10 µg/mL
IC50 (HSV- I; Vero): > 10 µg/mL

O=C(Nc1ccc(NC(=S)NCCc2cccc(F)c2)cc1)c1ccccc1F [Example 552, 2-Fluoro-N-(4-{3-[2-(3-fluoro-phenyl)-ethyl]-thioureido}-phenyl)-benzamide]
IC50 (VZV strain Ellen; [4]): > 10 µg/mL
IC50 ([1]; read-out: IC50 ug/ml HCMV): > 0.5 µg/mL
IC50 (HSV- I; HSV- I, Vero cells, ELISA): > 10 µg/mL

O=C(Nc1ccc(NC(=S)NCCc2ccc(F)cc2)cc1)c1ccccc1F [Example 553, 2-Fluoro-N-(4-{3-[2-(4-fluoro-phenyl)-ethyl]-thioureido}-phenyl)-benzamide]
IC50 (VZV strain Ellen; [4]): 7 µg/mL (≈ 17 µM)
IC50 ([1]; read-out: IC50 ug/ml HCMV): > 0.5 µg/mL
IC50 (HSV- I; HSV- I, Vero cells, ELISA): > 10 µg/mL

O=C(Nc1ccc(NC(=S)NCCc2cccc(Cl)c2)cc1)c1ccccc1F [Example 563, N-(4-{3-[2-(3-Chloro-phenyl)-ethyl]-thioureido}-phenyl)-2-fluoro-benzamide]
IC50 (VZV strain Ellen; [2]): 9 µg/mL (≈ 21 µM)
IC50 [1, 3]: > 0.5 µg/mL
IC50 (HSV- I; Vero): > 10 µg/mL

CC(NC(=S)Nc1ccc(NC(=O)c2ccccc2F)cc1)c1ccccc1 (stereo not drawn) [Example 589, 2-Fluoro-N-{4-[3-(1-phenyl-ethyl)-thioureido]-phenyl}-benzamide]
IC50 (VZV strain Ellen; [4]): 0.36 µg/mL (≈ 0.915 µM)
IC50 ([1]; read-out: IC50 ug/ml HCMV): 7 µg/mL (≈ 17.8 µM)
IC50 (HSV- I; HSV- I, Vero cells, ELISA): > 10 µg/mL

CC(NC(=S)Nc1ccc(NC(=O)c2ccccc2F)cc1)c1ccc(F)cc1 (stereo not drawn) [Example 591, 2-Fluoro-N-(4-{3-[1-(4-fluoro-phenyl)-ethyl]-thioureido}-phenyl)-benzamide]
IC50 (VZV strain Ellen; [4]): 1.5 µg/mL (≈ 3.65 µM)
IC50 ([1]; read-out: IC50 ug/ml HCMV): 7 µg/mL (≈ 17 µM)
IC50 (HSV- I; HSV- I, Vero cells, ELISA): > 10 µg/mL

CC(C)CN(C)c1cc(NC(=S)Nc2ccc(NC(=O)c3ccccc3F)cc2)cc(C(F)(F)F)c1 [Example 596, 2-Fluoro-N-(4-{3-[3-(isobutyl-methyl-amino)-5-trifluoromethyl-phenyl]-thioureido}-phenyl)-benzamide]
IC50 (VZV strain Ellen; [2]): > 10 µg/mL
IC50 [1, 3]: 2 µg/mL (≈ 3.86 µM)
IC50 (HSV- I; Vero): > 10 µg/mL

CCCCN(C)c1cc(NC(=S)Nc2ccc(NC(=O)c3ccccc3F)cc2)cc(C(F)(F)F)c1 [Example 598, N-(4-{3-[3-(Butyl-methyl-amino)-5-trifluoromethyl-phenyl]-thioureido}-phenyl)-2-fluoro-benzamide]
IC50 (VZV strain Ellen; [2]): > 10 µg/mL
IC50 [1, 3]: > 10 µg/mL
IC50 (HSV- I; Vero): > 10 µg/mL

O=C(Nc1ccc(NC(=S)NCCCc2ccccc2)cc1)c1ccccc1F [Example 628, 2-Fluoro-N-{4-[3-(3-phenyl-propyl)-thioureido]-phenyl}-benzamide]
IC50 (VZV strain Ellen; [2]): 10 µg/mL (≈ 24.5 µM)
IC50 [1, 3]: > 10 µg/mL
IC50 (HSV- I; Vero): > 10 µg/mL

CN(C)c1cc(CNC(=S)Nc2ccc(NC(=O)c3ccccc3F)cc2)cc(C(F)(F)F)c1 [Example 636, N-{4-[3-(3-Dimethylamino-5-trifluoromethyl-benzyl)-thioureido]-phenyl}-2-fluoro-benzamide]
IC50 (VZV strain Ellen; [2]): 5 µg/mL (≈ 10.2 µM)
IC50 [1, 3]: > 10 µg/mL
IC50 (HSV- I; Vero): > 10 µg/mL

COc1cccc(C(=O)Nc2ccc(NC(=S)NC(C)c3ccc(F)cc3)cc2)c1 (stereo not drawn) [Example 753, N-(4-{3-[1-(4-Fluoro-phenyl)-ethyl]-thioureido}-phenyl)-3-methoxybenzamide]
IC50 (VZV strain Ellen; [2]): > 7.5 µg/mL
IC50 [1, 3]: > 0.5 µg/mL
IC50 (HSV- I; Vero): > 10 µg/mL

COc1ccc(C(=O)Nc2ccc(NC(=S)NC(C)c3ccc(F)cc3)cc2)cc1 (stereo not drawn) [Example 754, N-(4-{3-[1-(4-Fluoro-phenyl)-ethyl]-thioureido}-phenyl)-4-methoxy-benzamide]
IC50 (VZV strain Ellen; [2]): 0.2 µg/mL (≈ 0.472 µM)
IC50 [1, 3]: > 10 µg/mL
IC50 (HSV- I; Vero): > 10 µg/mL

CC(NC(=S)Nc1ccc(NC(=O)c2ccccc2Cl)cc1)c1ccc(F)cc1 (stereo not drawn) [Example 755, 2-Chloro-N-(4-{3-[1-(4-fluoro-phenyl)-ethyl]-thioureido}-phenyl)-benzamide]
IC50 (VZV strain Ellen; [2]): 7 µg/mL (≈ 16.4 µM)
IC50 [1, 3]: > 10 µg/mL
IC50 (HSV- I; Vero): > 10 µg/mL
